Values of other authors, collected in patent US20140316796A1, “SYSTEMS, METHODS, AND COMPUTER-READABLE MEDIA FOR LIMITED DISTRIBUTION OF SPECIALTY DRUG USING A COMPUTER HUB OPERATING AT A SINGLE ACCESS POINT” (Jazz Pharmaceuticals, priority 2013, published 2014).

Details: pH 4

In the case of `CSCC[C@@H]1NC(=O)[C@H](CC(C)C)NC(=O)[C@H](CCCNC(=N)N)NC(=O)[C@H](CO)NC(=O)[C@@H]2CSSC[C@@H]3NC(=O)[C@H](CO)NC(=O)CNC(=O)[C@H]([C@@H](C)O)NC(=O)[C@H](CSSC[C@H](N)C(=O)N[C@@H](CCCCN)C(=O)NCC(=O)N[C@@H](CCCCN)C(=O)NCC(=O)N[C@@H](C)C(=O)N[C@@H](CCCCN)C(=O)N2)NC(=O)[C@H](CSSC[C@@H](C(N)=O)NC(=O)[C@H](CCCCN)NC(=O)CNC(=O)[C@H](CO)NC(=O)[C@H](CCCNC(=N)N)NC3=O)NC(=O)[C@H](CC(=O)O)NC(=O)[C@H](Cc2ccc(O)cc2)NC1=O` [ziconotide], the solution stability is listed as “stable at 45 °C for weeks”.
